Tested on: Proteasome
Assay: Inhibitory activity against 20S proteosome
Assay type: subcellular

Row | Structure (SMILES) | k obs / 1 [M⁻¹ s⁻¹]
1 | CC[C@H](C)[C@H](NC(=O)[C@H]([C@@H](C)CC)N(C)C(C)=O)C(=O)N[C@H](C(=O)N[C@@H](CC(C)C)C(=O)[C@@]1(C)CO1)[C@@H](C)O | 37200
2 | CC[C@@H](C)[C@H](NC(=O)[C@H]([C@@H](C)CC)N(C)C(C)=O)C(=O)N[C@H](C(=O)N[C@@H](CC(C)C)C(=O)[C@@]1(C)CO1)[C@@H](C)O | 246

Reference: ChEMBL document CHEMBL1131830, “Total synthesis of the potent proteasome inhibitor epoxomicin: a useful tool for understanding proteasome biology” (Bioorg Med Chem Lett, 1999)
